Source: publication PMC7795425, “Synthesis and Biological Activity of Brassinosteroid Analogues with a Nitrogen-Containing Side Chain” (International Journal of Molecular Sciences, 2020)
Entries after “also recorded” stand apart in the source; their conditions may differ.

Key:
rice leaf lamina = test system: rice leaf lamina; set-up: method as in PMID 11674612; details: all doses studied; cited from earlier work
[1] = Calcein AM cytotoxicity assay, HeLa; format: cell-based; details: human, HeLa cervical carcinoma cells, IC50 > 50 µM means inactive, read-out: Cytotoxic activity IC50
Experimental: (§1) The effect of the prepared BRs derivatives on the viability (in Calcein AM assays) of BJ human fibroblasts (as an example of a “normal” cell line) and human cancer cell lines of various histopathological origins, including: T-lymphoblastic leukemia CEM, breast carcinoma MCF7 and cervical carcinoma cell line HeLa, was also studied. Cells of all these lines were exposed to six 3-fold dilutions of each drug for 72 h prior to determination of cell survival. The IC50 (concentration leading to 50% inhibition of viability) values obtained from the Calcein AM cytotoxicity assay were calculated. […] All tested BR nitrogen-containing derivatives had no detectable activity, even when tested in concentrations of up to 50 µM.
(§2) The screening cell lines: T-lymphoblastic leukemia CEM; breast carcinoma MCF7 (estrogen-sensitive); cervical carcinoma cell line HeLa; and human foreskin fibroblasts BJ, were obtained from the American Type Culture Collection (Manassas, VA, USA). Cells were cultured in DMEM (Dulbecco’s Modified Eagle Medium, Sigma, St. Louis, MO, USA). Media used were supplemented with 10% fetal bovine serum, 2mM L-glutamine and 1% penicillin–streptomycin. The cell lines were maintained under standard cell culture conditions at 37 °C and 5% CO2 in a humid environment.
(§3) Cells were subcultured twice or three times a week using the standard trypsinization procedure. Cytotoxicity in cancer cell lines after 72 h was determined as described earlier. Control cultures were treated with DMSO alone, and the final concentration of DMSO in the mixture never exceeded 0.6%. Six serial 3-fold dilutions of the test substances were added at time zero in 20 μL aliquots to the microtiter plate wells and the highest final concentration in the wells was 50 μM.
(§4) Table S3: Cytotoxic activities, IC50 (µM/L)a, of compounds in three tumor and one normal fibroblast
(§5) Compound CEM MCF7 HeLa BJ
(§6) a The lowest concentration that kills 50% of cells.
(§7) b Increase of cell proliferation.

[2] = test system: Arabidopsis thaliana L. (Columbia ecotype, Col-0) seedlings; test: Arabidopsis root sensitivity bioassay; format: in vivo; details: for root length, mean: 7-day-old seedlings; for elongation of roots (growth-promoting activity) compared to the control: low concentrations (0.1 and 1 nM)
Experimental: Several bioassays such as the first bean internode, root growth and rice lamina inclination have been developed to evaluate the growth-promoting activity of BR derivatives. In this work, the activity of new BR analogues was evaluated using the Arabidopsis root sensitivity test because of its simplicity and high sensitivity for BRs.. The characteristic effect of exogenously applied BRs on light-grown Arabidopsis is dose-dependent—BRs in higher concentrations cause inhibition of root growth; vice versa, low concentrations are stimulating. The results obtained for 24-epiBL, which was used as a positive control, and the BR derivatives are shown in Figure 2, Figure 3 and Figure S21. […] A similar trend was shown for dimethylammonium hydrochloride 22a and morpholinium hydrochloride 22e with a long side chain. For numerical values of the average, SD and p-value, see Table S2.
The biological activity of the new BRs derivatives was tested by an Arabidopsis sensitivity bioassay which was performed according to [28]. Briefly, seedlings of Arabidopsis thaliana L. (Columbia ecotype, Col-0) were stratified for 2 days at 4 °C and germinated on vertical half-strength Murashige and Skoog (1% w/v sucrose) agar at 22 °C in a 16 h/8 h light–dark cycle. The plates contained concentrations of 24-epiBL (as positive control) and BR derivatives ranging from 0.1 to 10 nM, respectively 100 nM (for selected derivatives only). After 7 days, roots were straightened on solid media plates and scanned with an Epson high-resolution scanner. The entire root length was measured with ImageJ (http://rsbweb.nih.gov/ij/). For each treatment, more than 15 seedlings were analyzed in two biological repeats, and p-values were calculated with the two-tailed Student t-test using Excel software.
(§8) Figure 2 Effect of selected brassinosteroid derivatives on the inhibition of Arabidopsis root length. Seven-day-old Arabidopsis thaliana seedlings (Columbia ecotype, Col-0) were treated with DMSO as control/24epiBL/BR short side chain derivatives; (A)—amides, (B)—amines, (C)—ammonium hydrochlorides. For each treatment, more than 15 seedlings were analyzed in two biological repeats. Error bars represent SD. Asterisks represent significant changes (t-test); * represents p-value < 0.05, in comparison to control.
as §8, with “Figure 3” for “Figure 2”, “control/24epiBL/BR long” for “control/24epiBL/BR short”, “(A)—amides, (B)—ammonium” for “(A)—amides, (B)—amines, (C)—ammonium”
Table S2: Data for figure 2, 3, and S21. P value <0.05(t-test), comparison to control.
control (mean ± SD) 16.3 ± 1.21
*only selected compounds were tested
mean(mm) SD t-test mean (mm) SD t-test mean (mm) SD t-test mean (mm) SD t-test
(1 picture or pasted object on this page, not shown here)

[3] = Calcein AM cytotoxicity assay, MCF7; format: cell-based; details: human, MCF7 breast carcinoma cells (estrogen-sensitive), MCF7, 72 h, IC50 > 50 µM means inactive, read-out: Cytotoxic activity IC50
Experimental: as §1, §2, §3, §4, §5, §6, §7

[4] = Calcein AM cytotoxicity assay, CEM; format: cell-based; details: human, CEM T-lymphoblastic leukemia cells, IC50 > 50 µM means inactive, read-out: Cytotoxic activity IC50
Experimental: as §1, §2, §3, §4, §5, §6, §7

[5] = Calcein AM cytotoxicity assay, BJ; format: cell-based; details: human, BJ foreskin fibroblasts (normal cell line), IC50 > 50 µM means inactive, read-out: Cytotoxic activity IC50
Experimental: as §1, §2, §3, §4, §5, §6, §7

[6] = test system: T-lymphoblastic leukemia CEM; set-up: method as in PMID 17869317; details: CEM cells; positive control; cited from earlier work
[7] = 100 nM (only selected compounds), control 14.61 ± 0.85

Molecule: 25-azabrassinolide
- biological activity in rice lamina inclination (rice leaf lamina): completely inactive; also recorded: no biological activity

Molecule: C[C@H]([C@@H](O)[C@H](O)C(=O)N1CCCCC1)[C@H]1CC[C@H]2[C@@H]3CC(=O)[C@H]4C[C@H](O)[C@H](O)C[C@]4(C)[C@H]3CC[C@]12C [20d, 1-((20S,22R,23S)-2α,3α,22,23-tetrahydroxy-6-oxo-5α-cholan-24-oyl)piperidine]
- IC50 at 72 h [1]: > 50 µM
- root length, mean ([2]; 0.1 nM, control 16.3 ± 1.21): 14.37 mm
- root length, mean ([2]; 1 nM, control 16.3 ± 1.21): 14.50 mm
- root length, mean ([2]; 10 nM, control 16.3 ± 1.21): 14.51 mm
- IC50 at 72 h [3]: > 50 µM
- IC50 at 72 h [4]: > 50 µM
- IC50 at 72 h [5]: > 50 µM
- melting point: > 200 °C (dec.)

Molecule: C[C@H]([C@@H](O)[C@H](O)C(=O)N1CCOCC1)[C@H]1CC[C@H]2[C@@H]3CC(=O)[C@H]4C[C@H](O)[C@H](O)C[C@]4(C)[C@H]3CC[C@]12C [20e, 4-((20S,22R,23S)-2α,3α,22,23-tetrahydroxy-6-oxo-5α-cholan-24-oyl)morpholine]
- IC50 at 72 h [1]: > 50 µM
- root length, mean ([2]; 0.1 nM, control 16.3 ± 1.21): 17.44 mm
- root length, mean ([2]; 1 nM, control 16.3 ± 1.21): 16.78 mm
- root length, mean ([2]; 10 nM, control 16.3 ± 1.21): 15.97 mm
- IC50 at 72 h [3]: > 50 µM
- IC50 at 72 h [4]: > 50 µM
- IC50 at 72 h [5]: > 50 µM
- melting point: > 210 °C (dec.)

Molecule: C[C@H]([C@@H](O)[C@@H](O)CN(C)C)[C@H]1CC[C@H]2[C@@H]3CC(=O)[C@H]4C[C@H](O)[C@H](O)C[C@]4(C)[C@H]3CC[C@]12C.Cl [22a, N,N-dimethyl-((20S,22R,23S)-2α,3α,22,23-tetrahydroxy-6-oxo-5α-cholan-24-yl)aminium chloride]
- IC50 at 72 h [1]: > 50 µM
- root length, mean ([2]; 0.1 nM, control 16.3 ± 1.21): 19.56 mm
- root length, mean ([2]; 1 nM, control 16.3 ± 1.21): 18.17 mm
- root length, mean ([2]; 10 nM, control 16.3 ± 1.21): 17.11 mm
- root length, mean [2, 7]: 13.464 mm
- elongation of roots (growth-promoting activity) compared to the control [2]: interesting growth-promoting activity
- IC50 at 72 h [3]: > 50 µM
- IC50 at 72 h [4]: > 50 µM
- IC50 at 72 h [5]: > 50 µM
- melting point: > 270 °C (dec.)

Molecule: CCN(CC)C[C@H](O)[C@H](O)[C@@H](C)[C@H]1CC[C@H]2[C@@H]3CC(=O)[C@H]4C[C@H](O)[C@H](O)C[C@]4(C)[C@H]3CC[C@]12C.Cl [22b, N,N-diethyl-((20S,22R,23S)-2α,3α,22,23-tetrahydroxy-6-oxo-5α-cholan-24-yl)aminium chloride]
- IC50 at 72 h [1]: > 50 µM
- root length, mean ([2]; 0.1 nM, control 16.3 ± 1.21): 14.51 mm
- root length, mean ([2]; 1 nM, control 16.3 ± 1.21): 15.32 mm
- root length, mean ([2]; 10 nM, control 16.3 ± 1.21): 15.48 mm
- root length, mean [2, 7]: 15.160 mm
- inhibitory effect on Arabidopsis root growth ([2]; tested 0.1 to 10 nM, selected derivatives also 100 nM): the same effect only at low concentrations
- IC50 at 72 h [3]: > 50 µM
- IC50 at 72 h [4]: > 50 µM
- IC50 at 72 h [5]: > 50 µM
- melting point: > 250 °C (dec.)

Molecule: C[C@H]([C@@H](O)[C@@H](O)CN1CCCC1)[C@H]1CC[C@H]2[C@@H]3CC(=O)[C@H]4C[C@H](O)[C@H](O)C[C@]4(C)[C@H]3CC[C@]12C.Cl [22c, 1-((20S,22R,23S)-2α,3α,22,23-tetrahydroxy-6-oxo-5α-cholan-24-yl)pyrrolidinium chloride]
- IC50 at 72 h [1]: > 50 µM
- root length, mean ([2]; 0.1 nM, control 16.3 ± 1.21): 15.97 mm
- root length, mean ([2]; 1 nM, control 16.3 ± 1.21): 14.83 mm
- root length, mean ([2]; 10 nM, control 16.3 ± 1.21): 15.81 mm
- IC50 at 72 h [3]: > 50 µM
- IC50 at 72 h [4]: > 50 µM
- IC50 at 72 h [5]: > 50 µM
- melting point: > 250 °C (dec.)

Molecule: C[C@H]([C@@H](O)[C@@H](O)CN1CCCCC1)[C@H]1CC[C@H]2[C@@H]3CC(=O)[C@H]4C[C@H](O)[C@H](O)C[C@]4(C)[C@H]3CC[C@]12C.Cl [22d, 1-((20S,22R,23S)-2α,3α,22,23-tetrahydroxy-6-oxo-5α-cholan-24-yl)piperidinium chloride]
- IC50 at 72 h [1]: > 50 µM
- root length, mean ([2]; 0.1 nM, control 16.3 ± 1.21): 15.48 mm
- root length, mean ([2]; 1 nM, control 16.3 ± 1.21): 15.97 mm
- root length, mean ([2]; 10 nM, control 16.3 ± 1.21): 16.62 mm
- IC50 at 72 h [3]: > 50 µM
- IC50 at 72 h [4]: > 50 µM
- IC50 at 72 h [5]: > 50 µM
- melting point: > 250 °C (dec.)

Molecule: C[C@H]([C@@H](O)[C@@H](O)CN1CCOCC1)[C@H]1CC[C@H]2[C@@H]3CC(=O)[C@H]4C[C@H](O)[C@H](O)C[C@]4(C)[C@H]3CC[C@]12C.Cl [22e, 4-((20S,22R,23S)-2α,3α,22,23-tetrahydroxy-6-oxo-5α-cholan-24-yl)morpholinium chloride]
- IC50 at 72 h [1]: > 50 µM
- root length, mean ([2]; 0.1 nM, control 16.3 ± 1.21): 17.93 mm
- root length, mean ([2]; 1 nM, control 16.3 ± 1.21): 17.27 mm
- root length, mean ([2]; 10 nM, control 16.3 ± 1.21): 16.95 mm
- elongation of roots (growth-promoting activity) compared to the control [2]: interesting growth-promoting activity
- IC50 at 72 h [3]: > 50 µM
- IC50 at 72 h [4]: > 50 µM
- IC50 at 72 h [5]: > 50 µM
- melting point: > 270 °C (dec.)

Molecule: CCC(C(C)C)C(O)C(O)C(C)C1CCC2C3CC(=O)C4CC(O)C(O)CC4(C)C3CCC12C (stereo not drawn) [28-Homocastasterone]
- IC50 [6]: 13 µM
